Data taken from patent US6465204B1, “Amidase” (Diversa Corporation, priority 1996, dated 2002).

Key:
[1] = system: Thermococcus GU5L5 amidase; assay: Activity and enantioselectivity of the amidase in increasing concentrations of DMF; format: biochemical; details: for Initial Rate: RT, cell lysate, pH 7.5 Hepes
Procedure: The activity and enantioselectivity of the amidase in increasing concentrations of dimethyl formamide (DMF) was tested as follows: to each well of a microtiter plate was added 30 μL of 1 mM CBZ-L-arg-AMC or CBZ-D-arg-AMC in DMF, 30 μL of cell lysate containing the amidase activity, and 240 μL of a variable mixture of DMF:pH 7.5, 50 mM Hepes buffer. The reactiosn were incubated at RT for 1 hour and the fluorescence measured at 1 minute intervals.

[2] = system: Thermococcus GU5L5 amidase; assay: Substrate specificity of the amidase (fluorogenic substrates); format: biochemical; details: substrate 100 μM, 1 hour at 70° C.; ratio between substrates
Procedure: Fifty μL of the ‘600 μM stock solution’ was added to each of the wells of a white condensed plate using the Biomek to yield a final concentration of substrate of ˜100 μM. The fluorescence values were recorded (excitation=400 nm, emission=505 nm) on a plate reading fluorometer immediately after addition of the substrate. The plate was incubated at 70° C. for 60 min. and the fluorescence values were recorded again. The initial and final fluorescence values were subtracted to determine if an active clone was present by an increase in fluorescence over the majority of the other wells.
The excitation and emission wavelengths for the 7-amido-4-methylcoumarins were 380 and 460 nm respectively, and 326 and 450 for the methylumbelliferone.

[3] = Organic solvent sensitivity: activity of the amidase in increasing concentrations of DMSO; format: biochemical, Thermococcus GU5L5
Procedure: The activity of the amidase in increasing concentrations of dimethyl sulfoxide (DMSO) was tested as follows: to each well of a microtiter plate was added 10 μL of 3 mM CBZ-L-phe-AMC in DMSO, 25 μL of cell lysate containing the amidase activity, and 250 μL of a variable mixture of DMSO:pH 7.5, 50 mM Hepes buffer. The reactions were heated for 1 hour at 70° C. and the fluorescence measured. […] The filled and open boxes represent individual assays.

[4] = Temperature tolerance of the enzyme; design: species or system Thermococcus GU5L5

For `Cc1cc(=O)oc2cc(NC(=O)[C@@H](CCCNC(=N)N)NC(=O)OCc3ccccc3)ccc12` [CBZ-D-arg-AMC, Nα-carbonylbenzyloxy-D-arginine-7-amido-4-methylcoumarin], the “Initial Rate” value ([1]; DMF 0.4%) was 0.3 Fl.U./min, the “Initial Rate” value ([1]; DMF 10%) was 10.1 Fl.U./min and the “Initial Rate” value ([1]; DMF 20%) was 4.6 Fl.U./min. For the same molecule, the “Initial Rate” value ([1]; DMF 30%) was 1.8 Fl.U./min, the “Initial Rate” value ([1]; DMF 40%) was 0.9 Fl.U./min and the “Initial Rate” value ([1]; DMF 50%) was 1.2 Fl.U./min. The “Initial Rate” value ([1]; DMF 60%) was 1.4 Fl.U./min, the “Initial Rate” value ([1]; DMF 75%) was 0.1 Fl.U./min and the “Initial Rate” value ([1]; DMF 90%) was 0.1 Fl.U./min.

With `Cc1cc(=O)oc2cc(NC(=O)[C@H](CCCNC(=N)N)NC(=O)OCc3ccccc3)ccc12` [CBZ-L-arg-AMC, Nα-carbonylbenzyloxy-L-arginine-7-amido-4-methylcoumarin] the “relative activity of the amidase” value [2] was 3, the “Initial Rate” value ([1]; DMF 0.4%) was 654 Fl.U./min and the “Initial Rate” value ([1]; DMF 10%) was 2548 Fl.U./min. For the same molecule, the “Initial Rate” value ([1]; DMF 20%) was 1451 Fl.U./min, the “Initial Rate” value ([1]; DMF 30%) was 541 Fl.U./min and the “Initial Rate” value ([1]; DMF 40%) was 345 Fl.U./min. The “Initial Rate” value ([1]; DMF 50%) was 303 Fl.U./min, the “Initial Rate” value ([1]; DMF 60%) was 190 Fl.U./min and the “Initial Rate” value ([1]; DMF 75%) was 81 Fl.U./min. For the same molecule, the “Initial Rate” value ([1]; DMF 90%) was 11 Fl.U./min.

With `CSCC[C@H](NC(=O)OCc1ccccc1)C(=O)Nc1ccc2c(C)cc(=O)oc2c1` [CBZ-L-met-AMC, Nα-carbonylbenzyloxy-L-methionine-7-amido-4-methylcoumarin] the “relative activity of the amidase” value [2] was 1.

For `Cc1cc(=O)oc2cc(NC(=O)[C@H](Cc3ccccc3)NC(=O)OCc3ccccc3)ccc12` [CBZ-L-phe-AMC, Nα-carbonylbenzyloxy-L-phenylalanine-7-amido4-methylcoumarin], the “relative activity of the amidase” value [2] was 3.

B1: enzyme: purified thermostable amidase derived from Thermococcus GU5L5, 622 amino acid residues (SEQ ID NO:2) (protein)
chain: MTGIEWNHETFSKFAYLGDPRIRGNLIAYTLTKANMKDNKYESTVVVEDLETGSRRFIENASMPRISPDGRKLAFTCFNEEKKETEIWVADIQTLSAKKVLSTKNVRSMQWNDDSRRLLVVGFKRRDDEDFVFDDDVPVWFDNMGFFDGEKTTFWVLDTEAEEIIEQFEKPRFSSGLWHGDAIVVNVPHREGSKPALFKFYDIVLWKDGEEEKLFERVSFEAVDSDGKRILLRGKKKKRFISEHDWLYLWDGELKPIYEGPLDVWEAKLTEGKVYFLTPDAGRVNLWLWDGKAERVVTGDHWIYGLDVSDGKALLLIMTATRIGELYLYDGELKQVTEYNGPIFRKLKTFEPRHFRFKSKDLEIDGWYLRPEVKEEKAPVIVFVHGGPKGMYGHRFVYEMQLMASKGYYVVFVNPRGSDGYSEDFALRVLERTGLEDFEDIMNGIEEFFKLEPQADRERVGITGISYGGFMTNWALTQSDLFKAGISENGISYWLTSYAFSDIGLWYDVEVIGPNPLENENFRKLSPLFYAQNVKAPILLIHSLEDYRCPLDQSLMFYNVLKDMGKEAYIAIFKRGAHGHSVRGSPRHRPKRYRLFIEFFERKLKKYEEGFEVEKILKGNGN
For B1, the “selectivity for the L enantiomer of the derivatized amino acid substrate” value ([1]; CBZ-L-arg-AMC versus CBZ-D-arg-AMC) was “excellent selectivity for the L”, the “concentration of organic solvent tolerated” value [3] was over 40 % DMSO and the temperature tolerated [4] was “at least 70 °C”.
